Source: ChEMBL document CHEMBL4825751, “Design, synthesis, and antitumor activity evaluation of steroidal oximes” (Bioorg Med Chem, 2021)
Active and inactive are the calls of the source. No cut-off for these calls is given here.

Assays:
[1] = system: PC-3; test: Anticancer activity against human PC-3 cells assessed as inhibition of cell proliferation measured after 72 hrs by MTT assay; type: functional, cell-based; conditions: PC-3, 72 h
[2] = system: WiDr; test: Anticancer activity against human WiDr cells assessed as inhibition of cell proliferation measured after 72 hrs by MTT assay; type: functional, cell-based
[3] = system: NCI-H1299; test: Anticancer activity against human H1299 cells assessed as inhibition of cell proliferation measured after 72 hrs by MTT assay; type: functional, cell-based; conditions: NCI-H1299, 72 h
[4] = system: HepG2; test: Anticancer activity against human HepG2 cells assessed as inhibition of cell proliferation measured after 72 hrs by MTT assay; type: functional, cell-based; conditions: HepG2, 72 h
[5] = system: CCD-841CoN; test: Anticancer activity against human CCD841 CoN cells assessed as inhibition of cell proliferation measured after 72 hrs by MTT assay; type: cell-based
[6] = system: PC-3; test: Antiproliferative activity against human PC-3 cells assessed as reduction in cell viability at IC50 concentration measured after 72 hrs by Annexin-V and propidium iodide staining based flow cytometry analysis; type: functional
[7] = system: WiDr; test: Antiproliferative activity aginst human WiDr cells assessed as reduction in cell viability at IC50 concentration measured after 72 hrs by annexin -V and propidium iodide staining based flow cytometry analysis; type: functional
[8] = system: PC-3; test: Induction of apoptosis in human PC-3 cells assessed as apoptotic cells at IC50 concentration measured after 72 hrs by annexin-V and propidium iodide staining based flow cytometry analysis; type: functional
[9] = system: PC-3; test: Induction of apoptosis in human PC-3 cells assessed as apoptotic cells at 50 uM measured after 72 hrs by annexin-V and propidium iodide staining based flow cytometry analysis; type: functional
[10] = system: WiDr; test: Induction of apoptosis in human WiDr cells assessed as late apoptotic/necrotic cells at 50 uM measured after 72 hrs by annexin-V and propidium iodide staining based flow cytometry analysis; type: functional, cell-based
[11] = system: PC-3; test: Induction of cell cycle arrest in human PC-3 cells assessed as pre-G0/G1 phase at 40 uM measured after 72 hrs by propidium iodide based assay relative to control; type: functional
[12] = system: WiDr; test: Induction of cell cycle arrest in human WiDr cells assessed as pre-G0/G1 phase at 40 uM measured after 72 hrs by propidium iodide based assay relative to control; type: functional
[13] = system: PC-3; test: Induction of apoptosis in human PC-3 cells assessed as fold increase in BAX/BCL-2 ratio at 50 uM measured after 72 hrs relative to control; type: functional
[14] = system: PC-3; test: Induction of mitochondrial membrane potential loss in human PC-3 cells at IC50 concentration after 72 hrs by flow cytometry; type: functional, cell-based
[15] = system: WiDr; test: Induction of mitochondrial membrane potential loss in human WiDr cells at IC50 concentration after 72 hrs by flow cytometry; type: functional, cell-based
[16] = system: PC-3; test: Induction of mitochondrial membrane potential loss in human PC-3 cells at 50 uM after 72 hrs by flow cytometry; type: functional
[17] = system: PC-3; test: Induction of oxidative stress in human PC-3 cells assessed as increase in superoxide anion level at IC50 concentration incubated for 24 hrs by DHE based red fluorescence assay; type: functional, cell-based
[18] = system: WiDr; test: Induction of oxidative stress in human WiDr cells assessed as increase in superoxide anion level at IC50 concentration incubated for 24 hrs by DHE based red fluorescence assay; type: functional, cell-based
[19] = system: PC-3; test: Induction of oxidative stress in human PC-3 cells assessed as increase in peroxide level at IC50 concentration incubated for 24 hrs by DCFH2 based green fluorescence assay; type: functional, cell-based
[20] = system: WiDr; test: Induction of oxidative stress in human WiDr cells assessed as increase in peroxide level at IC50 concentration incubated for 24 hrs by DCFH2 based green fluorescence assay; type: functional, cell-based
[21] = system: PC-3; test: Induction of oxidative stress in human PC-3 cells assessed as increase in superoxide anion level at 15 uM incubated for 24 hrs by DHE based red fluorescence assay; type: functional, cell-based
[22] = system: WiDr; test: Induction of oxidative stress in human WiDr cells assessed as increase in superoxide anion level at 15 uM incubated for 24 hrs by DHE based red fluorescence assay; type: functional, cell-based
[23] = system: PC-3; test: Induction of oxidative stress in human PC-3 cells assessed as increase in peroxide level at 15 uM incubated for 24 hrs by DCFH2 based green fluorescence assay; type: functional, cell-based
[24] = system: WiDr; test: Induction of oxidative stress in human WiDr cells assessed as increase in peroxide level at 15 uM incubated for 24 hrs by DCFH2 based green fluorescence assay; type: functional, cell-based
[25] = system: PC-3; test: Effect on GSH expression in human PC-3 cells incubated for 24 hrs by mercury orange based red fluorescence assay; type: functional, cell-based
[26] = system: WiDr; test: Effect on GSH expression in human WiDr cells incubated for 24 hrs by mercury orange based red fluorescence assay; type: functional, cell-based
[27] = system: PC-3; test: Cytotoxicity against human PC-3 cells assessed as cell viability measured after 72 hrs by MTS assay; type: functional, cell-based; conditions: PC-3, 72 h
[28] = system: PC-3; test: Induction of apoptosis in human PC-3 cells assessed as late apoptotic/necrotic cells at 50 uM measured after 72 hrs by annexin-V and propidium iodide staining based flow cytometry analysis; type: functional
[29] = system: PC-3; test: Induction of apoptosis in human PC-3 cells assessed as necrotic cells at IC50 concentration measured after 72 hrs by annexin-V and propidium iodide staining based flow cytometry analysis; type: functional
[30] = system: PC-3; test: Induction of cell cycle arrest in human PC-3 cells assessed as G0/G1 phase measured after 72 hrs by cell cycle analysis relative to control; type: functional
[31] = system: WiDr; test: Induction of cell cycle arrest in human WiDr cells assessed as G2/M phase at 40 uM measured after 72 hrs by propidium iodide based assay relative to control; type: functional
[32] = system: PC-3; test: Induction of apoptosis in human PC-3 cells assessed as increase in BAX/BCL-2 ratio at IC50 concentration measured after 72 hrs; type: functional, cell-based
[33] = system: WiDr; test: Induction of apoptosis in human WiDr cells assessed as increase in BAX/BCL-2 ratio at IC50 concentration measured after 72 hrs; type: functional, cell-based

## C[C@]12CCCC=C1CC[C@@H]1[C@@H]2CC[C@]2(C)C(=O)CC[C@@H]12
[1]
  IC50: 21.5 µM
[2]
  IC50: 28 µM
[3]
  IC50: 21.5 µM
[4]
  IC50: 17.7 µM

## C[C@]12CCCC=C1CC[C@@H]1[C@@H]2CC[C@]2(C)/C(=N/O)CC[C@@H]12
[1]
  IC50: 14.5 µM
[2]
  IC50: 16.1 µM
[3]
  IC50: 19.2 µM
[4]
  IC50: 18.2 µM
[5]
  IC50: > 75 µM
[6]
  Activity: 75.46%
[7]
  Activity: 38.67%
[8]
  Activity: 6.25%
[9]
  Activity: 32.37%
[10]
  Activity: Active
[11]
  Activity: Active
[12]
  Activity: Active
[13]
  fold change (FC): 1.51
[14]
  Activity: Active
[15]
  Activity: Active
[16]
  fold change (FC): 3.66
[17]
  Activity: Active
[18]
  Activity: Active
[19]
  Activity: Active
[20]
  Activity: Active
[21]
  Activity: Active
[22]
  Activity: Active
[23]
  Activity: Active
[24]
  Activity: Active
[25]
  Activity: inactive
[26]
  Activity: inactive

## C[C@]12CC[C@H]3O[C@H]3[C@@H]1CC[C@@H]1[C@@H]2CC[C@]2(C)C(=O)CC[C@@H]12
[1]
  IC50: 46.8 µM
[2]
  IC50: 60.9 µM
[4]
  IC50: 32.6 µM

## C[C@]12CCC=C[C@@H]1CC[C@@H]1[C@@H]2CC[C@]2(C)C(=O)CC[C@@H]12
[1]
  IC50: 23.1 µM
[4]
  IC50: 15 µM

## CC(C)CCC[C@@H](C)[C@H]1CC[C@H]2[C@@H]3C/C(=N\O)C4C[C@@H](O)CC[C@]4(C)[C@H]3CC[C@]12C (some centres not stated)
[27]
  IC50: 49.8 µM

## C[C@]12CC[C@H]3[C@@H](CC[C@@]45O[C@@H]4CCC[C@]35C)[C@@H]1CC/C2=N\O
[2]
  IC50: 53.4 µM
[4]
  IC50: 52.7 µM

## CC(C)C(=O)Nc1ccc([N+](=O)[O-])c(C(F)(F)F)c1 [FLUTAMIDE]
[1]
  IC50: 58 µM
[3]
  IC50: > 500 µM

## CCc1c2c(nc3ccc(OC(=O)N4CCC(N5CCCCC5)CC4)cc13)-c1cc3c(c(=O)n1C2)COC(=O)[C@]3(O)CC [IRINOTECAN]
[2]
  IC50: 13.9 µM

## O=c1[nH]cc(F)c(=O)[nH]1 [FLUOROURACIL]
[2]
  IC50: 10.5 µM
[4]
  IC50: 19 µM

## C[C@]12CC[C@H]3[C@@H](CC[C@@]45O[C@@H]4CCC[C@]35C)[C@@H]1CCC2=O
[1]
  IC50: 62.1 µM
[2]
  IC50: 59.1 µM
[4]
  IC50: 42.4 µM

## C[C@]12CC[C@H]3O[C@H]3[C@@H]1CC[C@@H]1[C@@H]2CC[C@]2(C)/C(=N/O)CC[C@@H]12
[1]
  IC50: 77.9 µM
[2]
  IC50: 75 µM
[4]
  IC50: 64.3 µM

## C[C@]12CCC=C[C@@H]1CC[C@@H]1[C@@H]2CC[C@]2(C)/C(=N/O)CC[C@@H]12
[1]
  IC50: 13.8 µM
[2]
  IC50: 9.1 µM
[3]
  IC50: 18.6 µM
[4]
  IC50: 23.9 µM
[5]
  IC50: 31.7 µM
[6]
  Activity: 72.74%
[7]
  Activity: 47.67%
[28]
  Activity: 18.01%
[29]
  Activity: 49.94%
[30]
  Activity: 9.66%
[31]
  Activity: Active
[11]
  Activity: Active
[12]
  Activity: Active
[32]
  Activity: Active
[33]
  Activity: Active
[14]
  Activity: Active
[15]
  Activity: Active
[17]
  Activity: Active
[18]
  Activity: Active
[19]
  Activity: Active
[20]
  Activity: Active
[21]
  Activity: Active
[22]
  Activity: Active
[23]
  Activity: Active
[24]
  Activity: Active
[25]
  Activity: inactive
[26]
  Activity: inactive

## COc1cc([C@@H]2c3cc4c(cc3[C@@H](O[C@@H]3O[C@@H]5CO[C@@H](C)O[C@H]5[C@H](O)[C@H]3O)[C@H]3COC(=O)[C@H]23)OCO4)cc(OC)c1O [ETOPOSIDE]
[3]
  IC50: 230 µM
